# In patent US20170304288A1, “Formulations of Methionine Aminopeptidase Inhibitors for Treating Infectious Diseases” (Texas Southern University, priority 2013, published 2017):
# Test system: M. tuberculosis HN 3409
# Type: cell-based, Mycobacterium tuberculosis
# Settings: preliminary results, 29 days
row,SMILES,Multi-Drug Resistant Tuberculosis Strain HN3409
1,Oc1ccccc1/C=N/Nc1ncnc2sc3c(c12)CCCC3 [drawing 28],>25.0 µg/mL
2,Cc1nc(-c2ccccn2)nc(N(C)Cc2ccccc2)c1Cl [drawing 29],<1.0 µg/mL
3,O=C(N/N=C/c1c(O)ccc2ccccc12)c1ccncc1 [drawing 27],>25.0 µg/mL
4,Oc1c(I)cc(Cl)c2cccnc12 [drawing 32],<10.0 µg/mL
5,O=C1C(Br)=C(Br)C(=O)c2ccccc21,<25.0 µg/mL
6,O=C1C(Cl)=C(Cl)C(=O)c2ccccc21,<10.0 µg/mL
7,Oc1c(Br)cc(Cl)c2cccnc12 [drawing 31],<5.0 µg/mL
8,Oc1c(Cl)cc(Cl)c2cccnc12,<1.0 µg/mL
